Results on ten molecules are retold here after patent publication US9174932B2, “CaSR agonists” (AJINOMOTO CO., INC., priority 2008, dated 2015).

The term EC50 denotes the concentration at which the effect is half-maximal. Read a low EC50 as a more potent agent.

The target of one experiment is T1, human CaSR (Homo sapiens, UniProt P41180, E1011Q).
T1 construct: expressed in transfected cells; host or cells: 293E cells (HEK293 expressing EBNA1, ATCC CRL-10852), transient transfection of hCaSR/pcDNA3.1
T1 sequence (P41180 20-1078 E1011Q): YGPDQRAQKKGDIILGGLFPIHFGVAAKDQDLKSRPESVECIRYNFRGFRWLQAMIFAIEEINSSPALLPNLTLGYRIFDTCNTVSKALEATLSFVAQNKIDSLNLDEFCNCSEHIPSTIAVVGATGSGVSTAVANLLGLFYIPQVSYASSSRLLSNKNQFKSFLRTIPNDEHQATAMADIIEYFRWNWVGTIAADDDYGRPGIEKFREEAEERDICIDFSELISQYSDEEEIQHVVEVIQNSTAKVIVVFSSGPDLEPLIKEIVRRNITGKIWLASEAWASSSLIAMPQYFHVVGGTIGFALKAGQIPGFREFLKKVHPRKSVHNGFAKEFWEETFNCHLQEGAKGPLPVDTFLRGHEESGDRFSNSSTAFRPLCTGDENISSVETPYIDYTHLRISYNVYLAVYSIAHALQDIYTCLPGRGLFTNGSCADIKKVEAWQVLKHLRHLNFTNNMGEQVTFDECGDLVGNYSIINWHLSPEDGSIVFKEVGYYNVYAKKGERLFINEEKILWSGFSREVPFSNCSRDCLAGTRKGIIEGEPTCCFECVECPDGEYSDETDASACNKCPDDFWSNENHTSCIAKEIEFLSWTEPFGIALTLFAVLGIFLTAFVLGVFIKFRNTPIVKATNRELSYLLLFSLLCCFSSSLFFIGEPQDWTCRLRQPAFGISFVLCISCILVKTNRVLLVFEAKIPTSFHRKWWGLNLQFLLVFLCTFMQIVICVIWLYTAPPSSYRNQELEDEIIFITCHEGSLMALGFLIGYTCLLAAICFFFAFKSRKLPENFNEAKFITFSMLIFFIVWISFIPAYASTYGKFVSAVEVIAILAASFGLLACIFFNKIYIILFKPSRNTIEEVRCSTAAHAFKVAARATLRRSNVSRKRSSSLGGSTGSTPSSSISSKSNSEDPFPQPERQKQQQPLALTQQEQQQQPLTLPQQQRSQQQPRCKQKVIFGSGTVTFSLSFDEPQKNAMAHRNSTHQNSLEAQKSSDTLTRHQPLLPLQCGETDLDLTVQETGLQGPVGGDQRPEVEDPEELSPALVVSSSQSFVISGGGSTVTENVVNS
The experiment in a line: Evaluation of CaSR agonistic activity (293E cells transfected with hCaSR, Ca2+ fluorescent indicator, FLIPR). The class given is cell-based. To be noted: 293E cells expressing human CaSR; concentration giving activation rate 50%. How it is done:
293E cells (HEK293 cell expressing EBNA1, ATCC No. CRL-10852) were cultured in DMEM containing 10% fetal bovine serum (Dulbecco's modified Eagle medium containing […] Glucose, by NACALAI TESQUE, INC.), in the presence of 250 μg/mL of G418. The cells were spread on a petri dish of 10 cm diameter in 1.8×10^6 cells/15 mL. After leaving them in the CO2 incubator (5% CO2, 37° C.) for 24 hours, plasmid expressing human CaSR: hCaSR/pcDNA3.1 was transfected with a transfection reagent: Mirus TransIT 293 (by Takara Bio Inc.). After leaving it in the CO2 incubator for 24 hours, the cells were collected by DMEM containing 10% fetal bovine serum and seeded on poly-D-lysine coat 384 well plate (by Falcon) in 15,000 cells/well. After leaving them in the CO2 incubator for 24 hours, the medium was removed. Then, 50 μL/well of Ca^2+ fluorescent indicator: Calcium 4 Assay Kit (by Molecular Devices) that was dissolved in an assay buffer (146 mM NaCl, 5 mM KCl, 1 mM MgSO4, 1 mg/mL Glucose, 20 mM HEPES (pH 7.2), 1.5 mM CaCl2) was added thereto, and left at 37° C. for 1 hour and at room temperature for 30 minutes to absorb the fluorescent indicator. The 384 well plate was transferred to FLIPR (by Molecular Devices). Then, 12.5 μL/well of a compound that was dissolved in a 0.1% BSA containing assay buffer was added thereto, and change in fluorescence intensity was measured for 3 minutes. Meanwhile, Compound No. 20 was purchased from Bachem.
The difference between the maximum value and the minimum value (RFU(Max−Min)) of the fluorescence intensity before and after adding a compound was automatically calculated by FLIPR. RFU(Max−Min) when adding a compound in maximum concentration was defined as 100%; and RFU(Max−Min) when adding DMSO instead of the compound in the same concentration as that of the compound was defined as 0%.

The next experiment deals with rat large intestine loop. The experiment in a line: Effect of a CaSR agonist on water absorption in rat large intestine loop method (PGE2-treated). It is filed as in vivo. To be noted: male SD (IGS) rat large intestine loop, PGE2 i.p.; compound in Tyrode solution. How it is done: The cecum and large intestine were taken out from the abdomen of a male SD (IGS) rat under pentobarbital anesthesia, and a large intestine loop was prepared by ligating a part 5 cm just below the cecum. Immediately after preparing the loop, PGE2 (4 μg/mL/kg, SIGMA) was intraperitoneally administered. 30 minutes later, 2 mL of Tyrode solution (NaCl 136.9 mM, KCl 2.7 mM, CaCl2.2H2O 1.8 mM, MgCl2.6H2O 1.04 mM, NaH2PO4.2H2O 0.04 mM, glucose 5.55 mM, NaHCO3 11.9 mM) was poured in the prepared loop. 1 hour later, the weight of the loop, the weight thereof when the liquid was removed from the loop, and the loop area were measured to calculate the weight per unit area of the liquid that remains in the loop.
A test compound was tested by dissolving it in Tyrode solution that was adjusted to pH 6.5 to 7.5.
The remaining liquid weight per unit area (g/cm^2) was calculated by the following formula. Remaining liquid weight per unit area (g/cm^2)=(loop weight−loop weight when the liquid was removed from the loop)/loop area
Water absorption was evaluated by calculating the inhibition ratio by the following formula. Inhibition ration (%)=100−(remaining liquid weight per unit area with a drug−basic average remaining liquid weight per unit area)/(average remaining liquid weight per unit area of vehicle−basic average remaining liquid weight per unit area)×100 […]

Experiment [1] is described as follows: Quantitative sensory evaluation test of kokumi-imparting activity. Further details: species or system human. Conditions: for Intensity of kokumi After taste / Intensity of kokumi First-middle taste: score control 0, strong 3, very strong 5, n=4. How it is done:
The kokumi-imparting effects can be confirmed by the method such as a gustatory test by a human being as mentioned in Examples of the present invention, but it is not limited to those.
On compounds wherein a calcium receptor activating action was found (sodium salts of Compound Nos. 1, 7 and 21), the intensity of kokumi-imparting activity was examined by a quantitative sensory evaluation test. The used compound was prepared by dissolving 525 mg of the compound No. 1 described in Synthetic Example 1 of Example I in 5 mL of distilled water, adjusting it to pH6.5 to 7 by adding 16.4 mL of 0.1M sodium hydroxide solution thereto, and freeze-drying it to obtain a sodium salt thereof. Further, the used compound was also prepared as follows. 500 mg of the compound No. 7 described in Synthetic Example 7 of Example I was suspended in 5 mL of distilled water. 1.61 mL of 1M sodium hydroxide and 0.8 mL of 2M hydrochloric acid were added thereto at 0° C. respectively to precipitate a solid substance. The precipitated solid substance was taken by filtration and dried under reduced pressure at 40° C. to obtain 426 mg of the compound No. 7. The obtained solid substance was suspended in 10 mL of distilled water. 1.2 mL of 1M sodium hydroxide was added thereto and freeze-dried to obtain a sodium salt thereof. The compound No. 21 was used in the form of a sodium salt of the compound No. 21 described in Synthetic Example 21 of Example I, which was prepared by the same method as mentioned above.
A quantitative sensory evaluation test was conducted as follows. 0.000001 to 0.1 g/dL of the compound(s) (a sodium salt of No. 1) was mixed as a sample to distilled water containing glutamic sodium (0.05 g/dL), inosine monophosphate (0.05 g/dL) and sodium chloride (0.5 g/dL). Then, the intensity of kokumi-imparting activity was examined at that time. As a reference, γ Glu-Cys-Gly and γ Glu-Val-Gly were used, each of which is a known kokumi-imparting component. As for a sample that becomes acidic to an additive-free control after dissolving the sample, it was used by being adjusted with sodium hydroxide to become within pH±0.2 to the additive-free control. As for sensory scoring, it was defined as a control: 0, strong: 3, and very strong: 5; and n=4. Meanwhile, “first-middle taste” means the taste combining first taste and middle taste. The kokumi-imparting activity was widely seen in the above addition concentrations, and the results of the representative concentrations are shown in Table 5.

Turning to `N[C@@H](CCC(=O)Nc1cccc(S(=O)(=O)O)c1)C(=O)O` [Compound No. 1, N^5-(3-sulfophenyl)-L-glutamine], at human CaSR, it took 12 nM to reach a half-maximal effect (EC50). Also, in the experiment with rat large intestine loop, the Water absorption result is “promoted in a dose-dependent manner”.

The molecule `N[C@@H](CCC(=O)Nc1cc(Cl)cc(S(=O)(=O)O)c1O)C(=O)O` [Compound No. 7, N^5-(5-chloro-2-hydroxy-3-sulfophenyl)-L-glutamine] yielded an EC50 on human CaSR of 1.9 nM. Besides, in the experiment with rat large intestine loop, the Water absorption result is “promoted in a dose-dependent manner”.

Turning to `N[C@@H](CCC(=O)Nc1ccc(S(=O)(=O)O)c(Cl)c1)C(=O)O` [Compound No. 38, N^5-(3-chloro-4-sulfophenyl)-L-glutamine], the response on human CaSR was half-maximal at 6700 nM (EC50).

Molecule `N[C@@H](CCC(=O)Nc1ccc(S(=O)(=O)O)c(I)c1)C(=O)O` [Compound No. 40, N^5-(3-iodo-4-sulfophenyl)-L-glutamine] gave a 50% effective concentration (EC50) on human CaSR of 7900 nM.

On human CaSR, `N[C@@H](CCC(=O)Nc1cc(I)ccc1S(=O)(=O)O)C(=O)O` [Compound No. 41, N^5-(5-iodo-2-sulfophenyl)-L-glutamine] returned an EC50 of 2300 nM.

As for `N[C@@H](CCC(=O)Nc1cccc(S(=O)(=O)[O-])c1)C(=O)O.[Na+]` [No.1-Na salt], the “Intensity of kokumi After taste” value in experiment [1] (Conc. 0.00001 g/dL) is recorded as 1.0; in experiment [1] (Conc. 0.0001 g/dL), 2.0; in experiment [1] (Conc. 0.0005 g/dL), 3.0; in experiment [1] (Conc. 0.001 g/dL) it was 3.6; in experiment [1] (Conc. 0.01 g/dL), 5.0. Also, the “Intensity of kokumi First-middle taste” value is listed as 0.7 in experiment [1] (Conc. 0.00001 g/dL); 1.8 in experiment [1] (Conc. 0.0001 g/dL); 2.6 in experiment [1] (Conc. 0.0005 g/dL); 3.2 in experiment [1] (Conc. 0.001 g/dL); 5.0 in experiment [1] (Conc. 0.01 g/dL). Also, the Comments result in experiment [1] (Conc. 0.001 g/dL) is reported as “All tastes are strong, mainly”; in experiment [1] (Conc. 0.01 g/dL), “All tastes are strong”.

Consider `N[C@@H](CCC(=O)Nc1cc(Cl)cc(S(=O)(=O)[O-])c1O)C(=O)O.[Na+]` [No.7-Na salt], for which, in experiment [1] (Conc. 0.00005 g/dL), the “Intensity of kokumi After taste” value is given as 2.5 and the “Intensity of kokumi First-middle taste” value is listed as 2.2. Also, in experiment [1] (Conc. 0.0001 g/dL), the Comments result is on record as “There is about the same thickness”, the “Intensity of kokumi After taste” value is reported as 3.2 and the “Intensity of kokumi First-middle taste” value amounted to 2.5. Moreover, in experiment [1] (Conc. 0.0005 g/dL), the “Intensity of kokumi After taste” value was determined as 4.0 and the “Intensity of kokumi First-middle taste” value is 3.3.

Consider `Cc1c(Cl)cc(NC(=O)CC[C@H](N)C(=O)O)cc1S(=O)(=O)[O-].[Na+]` [No.21-Na salt], for which the results for the “Intensity of kokumi After taste” value in experiment [1] (Conc. 0.0002 g/dL), in experiment [1] (Conc. 0.0005 g/dL) and in experiment [1] (Conc. 0.001 g/dL) were 2.0, 3.1 and 3.7, respectively. Further, the “Intensity of kokumi First-middle taste” value stood at 1.5 in experiment [1] (Conc. 0.0002 g/dL), 2.6 in experiment [1] (Conc. 0.0005 g/dL) and 3.1 in experiment [1] (Conc. 0.001 g/dL).

“γ Glu-Cys-Gly [γGlu-Cys-Gly, reference compound]”: in experiment [1] (Conc. 0.01 g/dL), the Comments entry was “Richness, thickness and continuity”; the “Intensity of kokumi After taste” value was 3.0; the “Intensity of kokumi First-middle taste” value came to 3.0.

For the molecule “γ Glu-Val-Gly [γGlu-Val-Gly, reference compound]”, in experiment [1] (Conc. 0.001 g/dL), the Comments entry is “Mellowness, richness and growth”; the “Intensity of kokumi After taste” value is reported as 3.0; the “Intensity of kokumi First-middle taste” value stood at 2.5. Besides, in experiment [1] (Conc. 0.005 g/dL), the Comments result is “Mellowness, richness and growth”; the “Intensity of kokumi After taste” value amounted to 4.0; the “Intensity of kokumi First-middle taste” value amounted to 3.5.
